Reference: PMC5333544, “Purification and biochemical characterization of recombinant Persicaria minor β-sesquiphellandrene synthase” (PeerJ, 2017)

Assays:
PmSTS_Δ24 [1] = target: T1, PmSTS_Δ24 (Persicaria minor, UniProt I6XZ73, K266E, form not given); test: GC-MS product analysis after hexane extraction; assay type: biochemical; conditions: overnight incubation; product beta-sesquiphellandrene
T1 construct: N-terminal 24 residues removed from the 562-residue protein; N-terminal His6 tag (pET28b), no cleavage told; E. coli BL21 (DE3); PCR primer codes for Met-AGFKPS start; monomer stated for the full-length enzyme
T1 sequence (I6XZ73 entry or part of it K266E, form open): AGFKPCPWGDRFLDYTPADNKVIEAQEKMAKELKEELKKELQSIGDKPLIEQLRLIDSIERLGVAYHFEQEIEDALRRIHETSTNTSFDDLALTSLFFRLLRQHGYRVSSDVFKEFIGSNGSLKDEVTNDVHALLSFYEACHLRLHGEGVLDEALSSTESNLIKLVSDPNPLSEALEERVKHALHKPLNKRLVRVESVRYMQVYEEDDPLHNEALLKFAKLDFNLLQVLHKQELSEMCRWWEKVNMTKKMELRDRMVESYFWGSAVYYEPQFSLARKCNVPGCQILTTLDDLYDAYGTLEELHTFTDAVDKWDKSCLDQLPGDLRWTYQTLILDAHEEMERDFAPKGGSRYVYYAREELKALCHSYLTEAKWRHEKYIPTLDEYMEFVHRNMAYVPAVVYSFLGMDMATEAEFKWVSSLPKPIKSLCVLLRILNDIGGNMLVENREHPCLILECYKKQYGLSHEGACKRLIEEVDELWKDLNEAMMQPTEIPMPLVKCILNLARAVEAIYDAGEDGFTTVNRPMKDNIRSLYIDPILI

PmSTS_Δ24 [2] = target: T2, PmSTS_Δ24 (Persicaria minor, UniProt I6XZ73); test: malachite green phosphate assay coupled to inorganic diphosphatase; assay type: biochemical; conditions: 20 mM HEPES pH 8.0, 10 mM MgCl2, 30 °C, 0.1 µM enzyme, 2–30 µM FPP; read-out: Km app
T2 construct: N-terminal 24 residues removed from the 562-residue protein; N-terminal His6 tag (pET28b), no cleavage told; E. coli BL21 (DE3); PCR primer codes for Met-AGFKPS start; monomer stated for the full-length enzyme
T2 sequence (I6XZ73 entry or part of it, stated change not applied): as the sequence (I6XZ73 entry or part of it K266E, form open) above, with E242K counted along it

Row | Km (PmSTS_Δ24 [2]) | SMILES | GC-MS product analysis after hexane extraction (PmSTS_Δ24 [1])
1 | – | CC(C)=CCC/C(C)=C/CC/C(C)=C/COP(=O)(O)OP(=O)(O)O [farnesyl diphosphate] | mutant protein K266E produced using an E. coli expression system displayed a product profile
2 | 10.2 µM | CC(C)=CCC/C(C)=C/CC/C(C)=C/CO[P@@](=O)(O)OP(=O)(O)O (stereo in doubt) [farnesyl diphosphate] | –
